From patent US9756860B2, “Antimicrobial composition of ortho phenylphenol and silver” (Rohm and Haas Company, priority 2011, dated 2017)
Where two headings read alike, the source gives them in different places.

Assays:
Assay type in all cases: cell-based
[1] = tested on: Pseudomonas aeruginosa ATCC # 15442; experiment: MIC / synergy index test in 96 well microtiter plates, Gram negative bacteria; details: Ps. aeruginosa, ppm active; for MIC: Pseudomonas aeruginosa, ATCC15442, alone, read-out: MIC of compound acting alone (CA / CB)
Method: (§1) Ortho phenylphenol and silver are evaluated for synergy by determining the synergy index (S.I.) of the combination. Synergy index is calculated based on minimum inhibitory concentrations (MIC) of two antimicrobial compounds (A and B) alone and in combinations. The tests organisms are Gram negative bacteria (Pseudomonas aeruginosa), Gram positive bacteria (Staphylococcus aureus), yeast (Candida albicans) and mold (Aspergillus niger). Contact time for the bacteria is 24 and 48 hours, yeast is 48 and 72 hrs, and 3 and 7 days for mold. The test is carried out in 96 well microtiter plates.
(§2) SI is calculated as follows: Ca/CA+Cb/CB=Synergy Index (“SI”) Wherein: • CA=concentration of compound A in ppm, acting alone, which produced an end point (MIC of Compound A). • Ca=concentration of compound A in ppm, in the mixture, which produced an end point. • CB=concentration of compound B in ppm, acting alone, which produced an end point (MIC of Compound B). • Cb=concentration of compound B in ppm, in the mixture, which produced an end point. When the sum of Ca/CA and Cb/CB is greater than one, antagonism is indicated.

[2] = tested on: Aspergillus niger ATCC# 16404; experiment: MIC / synergy index test in 96 well microtiter plates, mold; details: A. niger, ppm active
Method: as §1, §2

[3] = tested on: Candida albicans ATCC#10203; experiment: MIC / synergy index test in 96 well microtiter plates, yeast; details: C. albicans, ppm active; for MIC: Candida albicans, ATCC10203, alone, read-out: MIC of compound acting alone (CA / CB)
Method: as §1, §2

[4] = tested on: Staphylococcus aureus ATCC# 6538; experiment: MIC / synergy index test in 96 well microtiter plates, Gram positive bacteria; details: S. aureus, ppm active; for MIC: Staphylococcus aureus, ATCC6538, alone, read-out: MIC of compound acting alone (CA / CB)
Method: as §1, §2

Row | Structure (SMILES) | MIC of compound acting alone (CA / CB) ([1]; contact time 24 hrs) [ppm] | MIC of compound acting alone (CA / CB) ([1]; contact time 48 hrs) [ppm] | MIC of compound acting alone (CA / CB) ([2]; contact time 3rd day) [ppm] | MIC of compound acting alone (CA / CB) ([2]; contact time 7th day) [ppm] | MIC of compound acting alone (CA / CB) ([3]; contact time 48 hrs) [ppm] | MIC of compound acting alone (CA / CB) ([3]; contact time 72 hrs) [ppm] | MIC of compound acting alone (CA / CB) ([4]; contact time 24 hrs) [ppm] | MIC of compound acting alone (CA / CB) ([4]; contact time 48 hrs) [ppm] | MIC ([1]; contact time 24 hrs) [µg/mL] | MIC ([1]; contact time 48 hrs) [µg/mL] | MIC ([2]; Aspergillus niger, ATCC16404, contact time 7th day, alone, read-out: MIC of compound acting alone (CA / CB)) [µg/mL] | MIC ([3]; contact time 48 hrs) [µg/mL] | MIC ([3]; contact time 72 hrs) [µg/mL] | MIC ([4]; contact time 24 hrs) [µg/mL] | MIC ([4]; contact time 48 hrs) [µg/mL]
1 | O=[N+]([O-])[O-].[Ag+] [AgNO3, Silver Nitrate] | 0.4 | 1 | 3 | 10 | 10 | 10 | 6 | 8 | – | – | – | – | – | – | –
2 | Oc1ccccc1-c1ccccc1 [OPP, ortho-phenylphenol] | – | – | 75 | – | – | – | – | – | 500 | 500 | 75 | 150 | 150 | 200 | 200
